Measurements taken from patent publication US20260132123A1, “ABAD INHIBITOR COMPOUNDS” (UNIVERSITY COURT OF THE UNIVERSITY OF ST ANDREWS, priority 2021, published 2026).

Experiments:
[1] = target: T1, 17β-HSD10 (Homo sapiens, UniProt Q99714); assay: 17β-HSD10 (ABAD) enzyme inhibition assay, NADH oxidation read at 340 nm (primary screen and dose response); type: biochemical; details: recombinant 17βHSD10 enzyme assay; for Hill Slope / Max. Fit / Min. Fit: curve fit
T1 construct: Histev (histidine tag with TEV site) (N, cleaved yes); made in house; host or cells: E. coli BL21-CodonPlus
T1 sequence (Q99714 1-261): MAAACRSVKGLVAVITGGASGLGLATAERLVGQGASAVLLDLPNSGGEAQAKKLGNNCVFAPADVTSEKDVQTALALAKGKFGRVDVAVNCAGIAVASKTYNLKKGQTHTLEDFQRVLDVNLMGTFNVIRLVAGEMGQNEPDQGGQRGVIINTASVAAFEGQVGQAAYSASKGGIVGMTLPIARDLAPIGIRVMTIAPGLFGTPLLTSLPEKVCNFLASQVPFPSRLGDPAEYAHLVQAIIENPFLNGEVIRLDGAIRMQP
In short: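 Tag-cleaved recombinant human 17β-HSD10 (2.5 nM) preincubated 15 min with compound in Tris pH 7.4, NaCl, DTT, Tween, BSA (catalase in some runs), then 100 μM acetoacetyl-CoA and NADH added. NADH oxidation by A340 fall: 35 min endpoint for screening at 10 μM; continuous 45 min for dose response.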

[2] = system: mtsABAD HEK293 cells; assay: Lactate dehydrogenase (LDH) cytotoxicity assay; type: cell-based, human; details: 50 μM compound
Description: Cell cytotoxicity was assessed via the measurement of lactate dehydrogenase leakage into the culture medium using a commercially available kit from Pierce (Thermo Scientific cat no. 88953). This was carried out in accordance with the kit guidelines, with the activity of Lactate Dehydrogenase (LDH) being calculated from the change in absorbance at […] as NADH is reduced. HEK293 cells overexpressing mts17β-HSD10 were cultured in phenol-red free media (10% fetal bovine serum (FBS), 1 mM sodium pyruvate, 100 units penicillin, 0.1 mg/mL streptomycin and 2 mM L-glutamine) and seeded at a density of 10,000 cells per well (100 μL, 96 well plates). […] Treated cells were incubated at 37° C. and CO2 (5%) for 24 hours before the LDH assay was performed as per the manufacturer's instructions. Spontaneous control (water) and maximum control (lysis buffer) used in accordance with the kit guide. Absorbance was measured at 490 nm and 680 nm using a SpectraMaxM2e spectrophotometer. The measured LDH activity was used to calculate % cytotoxicity using the following equation: […]

[3] = system: mtsABAD HEK293 cells; assay: Alamar Blue cell viability assay; type: cell-based, human; details: 50 μM compound
Description: Cell viability was assessed via fluorescence change using the commercially available Alamar Blue from ThermoFisher. HEK293 cells overexpressing mts17β-HSD10 were cultured in phenol-red free media (10% FBS, 1 mM sodium pyruvate, 100 units penicillin, 0.1 mg/mL streptomycin and 2 mM L-glutamine) and seeded at a density of 10,000 cells per well (100 μL, 96 well plates). […] Treated cells were then incubated at 37° C. and CO2 (5%) for 24 hours before the assay was performed as per the manufacturer's instructions. Fluorescence was measured at 530 nm excitation and 590 nm emission using a SpectraMaxM2e spectrophotometer.

| SMILES | EC50 [1] [µM] | Max. Effect (%) [1] [%] | Hill Slope [1] | Max. Fit [1] | Min. Fit [1] | LDH % Toxicity (50 μM Dose) [2] [%] | Alamar Blue % Viability (50 μM Dose) [3] [%] |
| --- | --- | --- | --- | --- | --- | --- | --- |
| CC(C)OCCN(C(=O)c1ccccc1F)c1cccc(N(C)Cc2c[nH]cn2)c1 [ESC1002267] | 6.03 | 76 | 0.9 | 103 | −4 | 4.81 | 89.57 |
| COc1ccccc1-c1ccccc1[C@@H]1CCCN1C(=O)c1sccc1C [ESC1002325] | 0.309 | 98 | 0.87 | 100 | −11 | 4.36 | 89.12 |
| COc1ccc(-c2ccccc2[C@H]2CCCN2C(=O)c2ccc(C)cc2)cn1 (stereo in doubt) [ESC1002120, [2-[2-(6-methoxy-3-pyridyl)phenyl]pyrrolidin-1-yl]-(p-tolyl)methanone] | > 20 | 13 |  |  |  | 4.611 | 81.743 |
| Cc1ccsc1C(=O)N1CCC[C@@H]1c1ccccc1-c1ccn[nH]1 [ESC1002091] | 3.16 | 84 | 1.2 | 93 |  | 5.395 | 84.920 |
| Cc1ccsc1C(=O)N1CCC[C@H]1c1ccccc1-c1ccc(Cl)cc1Cl [ESC1002340] | 0.631 | 105 | 1.6 | 96 | −7 | 5.33 | 94.26 |
| COCCn1cnc(CN(C)c2cccc(NC(=O)c3ccccc3F)c2)c1 [ESC1002163] | > 20 | 0 |  |  |  | 4.975 | 78.775 |
| Cc1ccsc1C(=O)N1CCC[C@H]1c1ccccc1-c1ccc(N2CCOCC2)cc1 [ESC1002318] | 1.91 | 91 | 1.1 | 98 | −1 | 2.55 | 85.76 |
| Cc1ccsc1C(=O)N1CCC[C@H]1c1ccccc1-c1cccc(C(F)(F)F)c1 [ESC1002320] | 0.603 | 99 | 0.91 | 101 | −1 | 5.12 | 83.37 |
| Cc1ccsc1C(=O)N1CCC[C@@H]1c1ccccc1-c1cn[nH]c1 [ESC1002092] | 1.23 | 93 | 1 | 98 | 0 | 4.240 | 80.606 |
| Cc1ccsc1C(=O)N1CCC[C@H]1c1ccccc1-c1ccc(C#N)cc1 [ESC1002316] | 0.275 | 101 | 0.93 | 100 | 0 | 3.69 | 80.39 |
| Cc1ccccc1-c1ccccc1[C@@H]1CCCN1C(=O)c1sccc1C [ESC1002323] | 0.468 | 106 | 1.4 | 101 | 7 | 5.03 | 96.19 |

Now from value to compound, other results behind:

| EC50 [1] [µM] | Max. Effect (%) [1] [%] | Hill Slope [1] | Max. Fit [1] | Min. Fit [1] | SMILES | LDH % Toxicity (50 μM Dose) [2] [%] | Alamar Blue % Viability (50 μM Dose) [3] [%] |
| --- | --- | --- | --- | --- | --- | --- | --- |
| 12.6 | 62 | 1 | 100 | 0 | CC(C)CN(C(=O)Cc1ccccc1)c1cccc(N(C)Cc2cnc[nH]2)c1 [ESC1002167, N-[3-[1H-imidazol-5-ylmethyl(methyl)amino]phenyl]-N-isobutyl-2-phenyl-acetamide] | 4.492 | 79.269 |
| > 20 | 15 |  |  |  | CCc1ccc(CN(C)c2cccc(N(CC(C)C)C(=O)c3ccccc3F)c2)cn1 [ESC1002213] | 8.010 | 81.860 |
| > 20 | 16 |  |  |  | CC(C)CN(C(=O)c1ccccc1F)c1cccc(N(C)Cc2ccc(O)nc2)c1 [ESC1002212] | 5.576 | 94.278 |
| > 20 | 50 |  |  |  | CC(C)CN(C(=O)c1ccccc1F)c1cccc(N(C)Cc2cncs2)c1 [ESC1002208] | 20.084 | 65.577 |
| > 20 | 41 |  |  |  | CC(C)CN(C(=O)c1ccccc1F)c1cccc(N(C)Cc2ncc[nH]2)c1 [ESC1002201] | 5.842 | 80.481 |
| 0.646 | 97 | 1.1 | 98 | 0 | CC(C)CN(C(=O)c1ccccc1)c1cccc(N(C)Cc2cnc[nH]2)c1 [ESC1002169, N-[3-[1H-imidazol-5-ylmethyl(methyl)amino]phenyl]-N-isobutyl-benzamide] | 4.554 | 84.229 |
| 8.91 | 72 | 1.1 | 100 | 0 | CC(C)CN(C(=O)CCc1ccccc1)c1cccc(N(C)Cc2cnc[nH]2)c1 [ESC1002168, N-[3-[1H-imidazol-5-ylmethyl(methyl)amino]phenyl]-N-isobutyl-3-phenyl-propanamide] | 4.285 | 82.648 |
| 0.331 | 99 | 0.8 | 103 | 0 | COc1ccc(C(=O)N(CC(C)C)c2cccc(N(C)Cc3cnc[nH]3)c2)cc1 [ESC1002182, N-[3-[1H-imidazol-5-ylmethyl(methyl)amino]phenyl]-N-isobutyl-4-methoxy-benzamide] | 4.733 | 87.643 |
| > 20 | 34 |  |  |  | CC(=O)N(CC(C)C)c1cccc(N(C)Cc2cnc[nH]2)c1 [ESC1002171, N-[3-[1H-imidazol-5-ylmethyl(methyl)amino]phenyl]-N-isobutyl-acetamide] | 5.933 | 86.843 |
| 10 | 57 | 1.3 | 79 | 0 | CC(C)CN(C(=O)c1ccccc1F)c1cccc(N(C)Cc2nccn2C)c1 [ESC1002202] | 2.542 | 81.531 |
| 0.776 | 95 | 1.2 | 97 | 0 | CC(C)CN(C(=O)c1ccc(Cl)cc1)c1cccc(N(C)Cc2cnc[nH]2)c1 [ESC1002183, 4-chloro-N-[3-[1H-imidazol-5-ylmethyl(methyl)amino]phenyl]-N-isobutyl-benzamide] | 5.082 | 89.373 |
